From patent US10519152B2, “Compounds and their use in treating cancer” (AstraZeneca AB, priority 2017, dated 2019)
pIC50: −log10 of the molar value. Structures can show the parent of a compound that is named as a salt.

Each molecule was assayed against T1, recombinant human Estrogen Receptor alpha ligand binding domain, residues 307-554 (ER alpha-LBD (GST)) (Homo sapiens, UniProt P03372) (assay: ERα binding assay (LanthaScreen TR-FRET competition)). Details: TR-FRET competition with Fluormone ES2 tracer, 4 hours at room temperature; single experiment or average of two or more.
T1 construct: made in house
T1 sequence (P03372 307-554): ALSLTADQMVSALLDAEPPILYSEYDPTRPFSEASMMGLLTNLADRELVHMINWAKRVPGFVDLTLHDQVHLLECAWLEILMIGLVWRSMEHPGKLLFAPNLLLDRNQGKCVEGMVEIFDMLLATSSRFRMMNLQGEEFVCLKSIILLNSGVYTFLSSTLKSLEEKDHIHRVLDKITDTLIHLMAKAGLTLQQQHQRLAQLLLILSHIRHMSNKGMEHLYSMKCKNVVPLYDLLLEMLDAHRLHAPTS
Molecule `Cc1ncsc1-c1ccc(CNC(=O)[C@@H]2C[C@@H](O)CN2C(=O)[C@@H](NC(=O)COCCCCCOc2cc(F)c([C@@H]3c4[nH]c5ccccc5c4C[C@@H](C)N3CC(F)(F)F)c(F)c2)C(C)(C)C)cc1` [Example 96] has a pIC50 of 9.22. `Cc1ncsc1-c1ccc(CNC(=O)[C@@H]2C[C@@H](O)CN2C(=O)[C@@H](NC(=O)COCCO[C@H](C)[C@@H](C)OCCOc2cc(F)c([C@@H]3c4[nH]c5ccccc5c4C[C@@H](C)N3CC(C)(C)F)c(F)c2)C(C)(C)C)cc1` [Example 80, (2S,4R)-1-((2S,10R,11R)-2-(tert-butyl)-14-(3,5-difluoro-4-((1R,3R)-2-(2-fluoro-2-methylpropyl)-3-methyl-2,3,4,9-tetrahydro-1H-pyrido[3,4-b]indol-1-yl)phenoxy)-10,11-dimethyl-4-oxo-6,9,12-trioxa-3-azatetradecanoyl)-4-hydroxy-N-(4-(4-methylthiazol-5-yl)benzyl)pyrrolidine-2-carboxamide] gave a pIC50 of 9.15. In the case of `Cc1ncsc1-c1ccc(CNC(=O)[C@@H]2C[C@@H](O)CN2C(=O)[C@@H](NC(=O)COCCOCCOCCCCNC(=O)c2cc(F)c([C@@H]3c4[nH]c5ccccc5c4C[C@@H](C)N3CC(C)(C)F)c(F)c2)C(C)(C)C)cc1` [Example 83, (2S,4R)-1-((S)-17-(tert-Butyl)-1-(3,5-difluoro-4-((1R,3R)-2-(2-fluoro-2-methylpropyl)-3-methyl-2,3,4,9-tetrahydro-1H-pyrido[3,4-b]indol-1-yl)phenyl)-1,15-dioxo-7,10,13-trioxa-2,16-diazaoctadecan-18-oyl)-4-hydroxy-N-(4-(4-methylthiazol-5-yl)benzyl)pyrrolidine-2-carboxamide], the pIC50 was 8.96. Work on `Cc1ncsc1-c1ccc(CNC(=O)[C@@H]2C[C@@H](OC(=O)[C@H](C)NC(=O)[C@@H](N)C(C)C)CN2C(=O)[C@@H](NC(=O)COCCOCCOCCOc2cc(F)c([C@@H]3c4[nH]c5ccccc5c4C[C@@H](C)N3CC(C)(C)F)c(F)c2)C(C)(C)C)cc1` [Example 100, (3R,5S)-1-((S)-2-(2-(2-(2-(2-(3,5-Difluoro-4-((1R,3R)-2-(2-fluoro-2-methylpropyl)-3-methyl-2,3,4,9-tetrahydro-1H-pyrido[3,4-b]indol-1-yl)phenoxy)ethoxy)ethoxy)ethoxy)acetamido)-3,3-dimethylbutanoyl)-5-((4-(4-methylthiazol-5-yl)benzyl)carbamoyl)pyrrolidin-3-yl L-valyl-L-alaninate Formate] yielded a pIC50 of 9.10. For `Cc1ncsc1-c1ccc(CNC(=O)[C@@H]2C[C@@H](O)CN2C(=O)[C@@H](NC(=O)COCCOCCOCCNC(=O)c2cc(F)c([C@@H]3c4[nH]c5ccccc5c4C[C@@H](C)N3CC(C)(C)F)c(F)c2)C(C)(C)C)cc1` [Example 91, (2S,4R)-1-((S)-15-(tert-Butyl)-1-(3,5-difluoro-4-((1R,3R)-2-(2-fluoro-2-methylpropyl)-3-methyl-2,3,4,9-tetrahydro-1H-pyrido[3,4-b]indol-1-yl)phenyl)-1,13-dioxo-5,8,11-trioxa-2,14-diazahexadecan-16-oyl)-4-hydroxy-N-(4-(4-methylthiazol-5-yl)benzyl)pyrrolidine-2-carboxamide], the pIC50 was 8.89. Molecule `Cc1ncsc1-c1ccc(CNC(=O)[C@@H]2C[C@@H](O)CN2C(=O)[C@@H](NC(=O)COc2ccc(OCCNC(=O)/C=C/c3cc(F)c([C@@H]4c5[nH]c6ccccc6c5C[C@@H](C)N4CC(C)(C)F)c(F)c3)cc2)C(C)(C)C)cc1` [Example 61, (2S,4R)-1-((S)-2-(2-(4-(2-((E)-3-(3,5-difluoro-4-((1R,3R)-2-(2-fluoro-2-methylpropyl)-3-methyl-2,3,4,9-tetrahydro-1H-pyrido[3,4-b]indol-1-yl)phenyl)acrylamido)ethoxy)phenoxy)acetamido)-3,3-dimethylbutanoyl)-4-hydroxy-N-(4-(4-methylthiazol-5-yl)benzyl)pyrrolidine-2-carboxamide, Trifluoroacetic Acid] has a pIC50 of 9.00. For `Cc1ncsc1-c1ccc(CNC(=O)[C@@H]2C[C@@H](O)CN2C(=O)[C@@H](NC(=O)CCCCNC(=O)/C=C/c2cc(F)c([C@@H]3c4[nH]c5ccccc5c4C[C@@H](C)N3CC(C)(C)F)c(F)c2)C(C)(C)C)cc1` [Example 60, (2S,4R)-1-((S)-2-(5-((E)-3-(3,5-difluoro-4-((1R,3R)-2-(2-fluoro-2-methylpropyl)-3-methyl-2,3,4,9-tetrahydro-1H-pyrido[3,4-b]indol-1-yl)phenyl)acrylamido)pentanamido)-3,3-dimethylbutanoyl)-4-hydroxy-N-(4-(4-methylthiazol-5-yl)benzyl)pyrrolidine-2-carboxamide, Trifluoroacetic Acid], the pIC50 was 9.15. With `CC[C@H](C)[C@H](N)C(=O)O[C@@H]1C[C@@H](C(=O)NCc2ccc(-c3scnc3C)cc2)N(C(=O)[C@@H](NC(=O)COCCOCCOCCOc2cc(F)c([C@@H]3c4[nH]c5ccccc5c4C[C@@H](C)N3CC(C)(C)F)c(F)c2)C(C)(C)C)C1` [Example 99, (3R,5S)-1-((S)-2-(2-(2-(2-(2-(3,5-Difluoro-4-((1R,3R)-2-(2-fluoro-2-methylpropyl)-3-methyl-2,3,4,9-tetrahydro-1H-pyrido[3,4-b]indol-1-yl)phenoxy)ethoxy)ethoxy)ethoxy)acetamido)-3,3-dimethylbutanoyl)-5-((4-(4-methylthiazol-5-yl)benzyl)carbamoyl)pyrrolidin-3-yl L-isoleucinate Formate] the pIC50 was 8.92. `Cc1ncsc1-c1ccc(CNC(=O)[C@@H]2C[C@@H](O)CN2C(=O)[C@@H](NC(=O)COCCOCCOCCOCC(=O)Nc2ccc([C@@H]3c4[nH]c5ccccc5c4C[C@@H](C)N3CC(C)(C)F)cc2)C(C)(C)C)cc1` [Example 55, N^1-(4-((1R,3R)-2-(2-fluoro-2-methylpropyl)-3-methyl-2,3,4,9-tetrahydro-1H-pyrido[3,4-b]indol-1-yl)phenyl)-N^14—((S)-1-((2S,4R)-4-hydroxy-2-((4-(4-methylthiazol-5-yl)benzyl)carbamoyl)pyrrolidin-1-yl)-3,3-dimethyl-1-oxobutan-2-yl)-3,6,9,12-tetraoxatetradecanediamide, Trifluoroacetic Acid] gave a pIC50 of 7.92. Work on `Cc1ncsc1-c1ccc(CNC(=O)[C@@H]2C[C@@H](O)CN2C(=O)[C@@H](NC(=O)COCCOCCOCCOc2cc(F)c([C@@H]3c4[nH]c5ccccc5c4C[C@@H](C)N3CC(F)(F)F)c(F)c2)C(C)(C)C)cc1` [Example 95, (2S,4R)-1-((S)-2-(tert-Butyl)-14-(3,5-difluoro-4-((1R,3R)-3-methyl-2-(2,2,2-trifluoroethyl)-2,3,4,9-tetrahydro-1H-pyrido[3,4-b]indol-1-yl)phenoxy)-4-oxo-6,9,12-trioxa-3-azatetradecanoyl)-4-hydroxy-N-(4-(4-methylthiazol-5-yl)benzyl)pyrrolidine-2-carboxamide] yielded a pIC50 of 8.92. Work on `Cc1ncsc1-c1ccc(CNC(=O)[C@@H]2C[C@@H](O)CN2C(=O)[C@@H](NC(=O)COCCOCCNC(=O)/C=C/c2cc(F)c([C@@H]3c4[nH]c5ccccc5c4C[C@@H](C)N3CC(C)(C)F)c(F)c2)C(C)(C)C)cc1` [Example 58, (2S,4R)-1-((S,E)-2-(tert-butyl)-15-(3,5-difluoro-4-((1R,3R)-2-(2-fluoro-2-methylpropyl)-3-methyl-2,3,4,9-tetrahydro-1H-pyrido[3,4-b]indol-1-yl)phenyl)-4,13-dioxo-6,9-dioxa-3,124-diazapentadec-4-enoyl)-4-hydroxy-N-(4-(4-methylthiazol-5-yl)benzyl)pyrrolidine-2-carboxamide, Trifluoroacetic Acid] yielded a pIC50 of 9.05. Work on `Cc1ncsc1-c1ccc(CNC(=O)[C@@H]2C[C@@H](O)CN2C(=O)[C@@H](NC(=O)c2cnn(CCOCCNC(=O)/C=C/c3cc(F)c([C@@H]4c5[nH]c6ccccc6c5C[C@@H](C)N4CC(C)(C)F)c(F)c3)c2)C(C)(C)C)cc1` [Example 64, 1-(2-(2-((E)-3-(3,5-difluoro-4-((1R,3R)-2-(2-fluoro-2-methylpropyl)-3-methyl-2,3,4,9-tetrahydro-1H-pyrido[3,4-b]indol-1-yl)phenyl)acrylamido)ethoxy)ethyl)-N—((S)-1-((2S,4R)-4-hydroxy-2-((4-(4-methylthiazol-5-yl)benzyl)carbamoyl)pyrrolidin-5-yl)-3,3-dimethyl-1-oxobutan-2-yl)-1H-pyrazole-4-carboxamide, Trifluoroacetic Acid] yielded a pIC50 of 9.40. `Cc1ncsc1-c1ccc(CNC(=O)[C@@H]2C[C@@H](O)CN2C(=O)[C@@H](NC(=O)COCCOCCCCCOc2cc(F)c([C@@H]3c4[nH]c5ccccc5c4C[C@@H](C)N3CC(C)(C)F)c(F)c2)C(C)(C)C)cc1` [Example 97, (2S,4R)-1-((S)-2-(2-(2-((5-(3,5-Difluoro-4-((1R,3R)-2-(2-fluoro-2-methylpropyl)-3-methyl-2,3,4,9-tetrahydro-1H-pyrido[3,4-b]indol-1-yl)phenoxy)pentyl)oxy)ethoxy)acetamido)-3,3-dimethylbutanoyl)-4-hydroxy-N-(4-(4-methylthiazol-5-yl)benzyl)pyrrolidine-2-carboxamide] gave a pIC50 of 9.30. In the case of `Cc1ncsc1-c1ccc(CNC(=O)[C@@H]2C[C@@H](O)CN2C(=O)[C@@H](NC(=O)COCCCOCCOc2cc(F)c([C@@H]3c4[nH]c5ccccc5c4C[C@@H](C)N3CC(F)(F)F)c(F)c2)C(C)(C)C)cc1` [Example 94, (2S,4R)-1-((S)-2-(2-(3-(2-(3,5-Difluoro-4-((1R,3R)-3-methyl-2-(2,2,2-trifluoroethyl)-2,3,4,9-tetrahydro-1H-pyrido[3,4-b]indol-1-yl)phenoxy)ethoxy)propoxy)acetamido)-3,3-dimethylbutanoyl)-4-hydroxy-N-(4-(4-methylthiazol-5-yl)benzyl)pyrrolidine-2-carboxamide], the pIC50 was 9.05.
